From patent US12421497B2, “Method for enriching cardiac myocytes” (Orizuru Therapeutics, Inc., priority 2019, dated 2025)
Where two headings read alike, the source gives them in different places.

Tests used:
atrial myocyte = conditions: cited from earlier work
ventricular myocyte = conditions: cited from earlier work
[1] = test system: “CD151-high” cell subpopulation obtained under conditions for differentiation into ventricular myocytes; test: Membrane potential analysis (FluoVolt dye) of response to atrial myocyte-specific channel inhibitor or activator, CD151-high cells; assay type: cell-based, human; conditions: 1 Hz pacing
Description: (§1) The “CD151-high” cell subpopulation was obtained under conditions for differentiation into ventricular myocytes and the “CD151-low” cell subpopulation was obtained under conditions for differentiation into atrial myocytes in Test Example 2. Then, their response to an atrial […] channel inhibitor 4-aminopyridine or activator carbachol was analyzed.
(§2) Each cell subpopulation was seeded at 5×10^4 cells/5 μL and cultured on a glass-bottom dish coated with fibronectin. StemPro-34 SFM containing 1% L-glutamine, 150 μg/mL transferrin, 50 μg/mL ascorbic acid, 4×10^−4 M monothioglycerol, and 5 ng/ml VEGF was used. The culture medium was changed every 3 days, and the cells were cultured at 37° C. under regular oxygen conditions. The cells at culture days 6 to 10 were subjected to membrane potential analysis.
(§3) First, the culture medium was removed. Next, 0.2 μL of membrane potential sensitive dye (FluoVolt, ThermoFisher scientific, F10488) was added per 200 μL of Gey's balanced salt solution (Sigma). […] Each “CD151-high”-induced cell was analyzed under 1 Hz pacing, and each “CD151-low”-induced cell was analyzed under 3 Hz pacing.
(§4) An AquaCosmos2.6 (Hamamatsu Photonics K. K.) was used for the analysis. While each cell was irradiated with excitation light at 490 nm every 5.9 ms for 20 s, the fluorescence response was measured. […]

[2] = test system: “CD151-low” cell subpopulation obtained under conditions for differentiation into atrial myocytes; test: Membrane potential analysis (FluoVolt dye) of response to atrial myocyte-specific channel inhibitor or activator, CD151-low cells; assay type: cell-based, human; conditions: 3 Hz pacing
Description: as §1, §2, §3, §4

[3] = 4-aminopyridine 50 μM final, 10 min after addition, FIG. 5(A)
[4] = carbachol 10 μM final, 1 min after addition, FIG. 5(B)

Compound | effect on APD20 (atrial myocyte; 4-aminopyridine added to a cell, blocker of ultra-rapidly activating delayed rectifier potassium channel (IKur)) | effect on APD (ventricular myocyte; 4-aminopyridine added to a cell) | effect on action potential duration (APD) [1, 3] | effect on action potential duration (APD) [2, 3] | effect on action potential duration (APD) (atrial myocyte; carbachol added to a cell, activator of muscarinic potassium channel (IK,Ach)) | effect on APD (ventricular myocyte; carbachol added to a cell) | effect on action potential duration (APD) [1, 4] | effect on action potential duration (APD) [2, 4]
Nc1ccncc1 [4-aminopyridine] | prolonged only in the atrial myocyte | not affected | little APD extension | prolong the action potential duration (APD) | – | – | – | –
C[N+](C)(C)CCOC(N)=O [carbachol] | – | – | – | – | shortened only in the atrial myocyte | not affected | no APD change | shorten the APD
